Entries after “also recorded” stand apart in the source; their conditions may differ.
How the values were obtained:
EAE-induced DA rats = assay: EAE-induced DA rat model, paralysis score and mortality (DA-EAE-28-01, Example 12); type: in vivo; details: 54 EAE induced DA rats; daily s.c. injection, 6 total; peptide dose 50 μg (mixtures 150 μg); deaths/N
Procedure: Each of the seven formulations being evaluated was provided as a lyophilized powder and stored at 4° C. Rehydration of each daily group dose was done with water for injection according to Table 6. MBP peptide formulations were re-suspended in water for injection (Cure Medical) and copaxone (Teva LTD) was diluted with Saline to a final concentration of 150 μg/mL. Each subject animal was administered the test formulation for 6 consecutive days by subcutaneous injection.
9 week old Dark Agouti (DA) female rats (Harlan Laboratories, Inc.), weighing between 125 and 145 grams were used as the test subjects. The health status of the animals used in this study was examined on arrival. Only animals in good health were acclimatized to laboratory conditions and were used in the study. Animals were provided Protein Rodent Diet (Teklad) ad libitum and free access to drinking water. Animals were housed in a controlled environment at between 20° C. and 24° C. with a relative humidity of 30-70% and a 12 hr light/12 hr dark cycle. Animals were randomly assigned to their respective test group. This study was performed following the review by the Committee for Ethical Conduct in the Care and Use of Laboratory Animals of the Assaf Harofeh medical center, Beer Yaakov, Ethical Committee number: 68/2009.
For induction of EAE, rats were intradermally injected at the base of the tail with a total volume of 200 μl of inoculum containing 50 μg of MBP(63-81) (ANASPEC), in saline mixed (1:1) with CFA, (IFA, Sigma) and 1 mg Mt (strain H37 RA; Difco Laboratories, Detroit, Mich.).
The rats were evaluated up daily starting 24 hours after immunization. […]
7-10 days post EAE induction, 54 animals were divided to 9 groups (6 rats in each), and blood was collected from 2 rats of each group before the initiation of the treatment. […] The animals were maintained and evaluated until day 28th post EAE-induction. […]
Animals were observed individually and clinical signs were recorded once daily during all study periods. […] The body weight of each animals was determined daily during all study periods. […]

[1] = tested on: experimental autoimmune encephalomyelitis (EAE) in DA rats; assay: EAE in DA rats treated with MBP peptides in mannosylated SUV liposomes (Example 10); type: in vivo
Procedure: All animal studies were carried out in animal facilities of Assaf Harofeh Medical Center (Zerifin, Israel) using standard approved practices for animal care. Induction of EAE was performed in 8-9 weeks Dark Agouti (DA) female rats. Briefly, rats were injected intradermally at the base of the tail with a total volume of 200 μl of inoculum, containing […] of MBP(63-81) (ANASPEC), in saline mixed (1:1) with CFA, (incomplete Freund's adjuvant (IFA), Sigma), and 1 mg MT (strain H37 RA; Difco Laboratories, Detroit, Mich.). Animals developing symptoms of MS were included to the study. Rats were treated with different liposomes formulations (Table 3), copaxone, or placebo (vehicle) under similar conditions for 6 days. All formulations were administrated by one subcutaneous injection per day. Animals were followed up till day 28th post EAE induction. Clinical signs score was performed daily during all study periods. Score gradation was the following: 0—Normal 1—tail weakness, 2—hind leg weakness or paralysis, 3—hind leg paralysis, dragging hind limbs, 4—complete paralysis, unable to move, 5—death.
Liposomes were assembled from a mixture of egg phosphatidylcholine (PC) and one molar percent mannosylated DOG (ManDOG) (Durova OM, supra). Assembly of SUV liposomes was performed as illustrated in FIG. 3: (i) formation of irregular lipid layers during evaporation of organic solvent, followed by re-hydration leading to the multi-layer multilamellar vesicle (MLV) liposomes formation; (ii) high-pressure homogenization resulting in formation of empty SUV; (iii) freeze drying of SUV liposomes with peptides—at this stage peptides are located between collapsed SUV liposomes; and (iv) encapsulation of peptides during second re-hydration into the SUV liposomes with an average diameter of approximately 60-100 nm, containing 1.0% mannose residues on their surface. Four formulations were used for this study: each B cell epitope MBP peptide (MBP1, MBP2, and MBP3) individually and a 1:1:1 mixture (by mass) of all three peptides.
Small unilamellar vesicles (SUV) were prepared from egg phosphatidylcholine (PC) and mannosylated DOG (Espuelas S. et al., Synthesis of an amphiphilic tetraantennary mannosyl conjugate and incorporation into liposome carriers, 2003 Bioorg Med Chem Lett., August 4; 13(15):2557-60, the contents of which are hereby incorporated by reference in their entirety for all purposes) (1:100 molar ratio) by high pressure homogenization (Durova OM, supra). Briefly, lipid mixture (100 mg/ml) in CHCl3 was dried under vacuum, further re-suspended in Milli-Q water to a final lipid concentration 50 mg/ml, followed by high-pressure homogenization (20,000 psi). Resulting SUV were mixed with peptides (lipid to peptide ratio 330:1) together with excess sugar (lactose to lipid ratio 3:1) with subsequent freeze-drying. Following rehydration under controlled conditions, the resulting SUV liposomes were washed by centrifugation to remove non-incorporated materials. The washed pellets were re-suspended in PBS to the required dose volume. Peptide incorporation was estimated on the basis of reversed-phase HPLC using linear gradient of acetonitrile applied on C18 column. The z-average diameter and zeta potential of liposomes were measured on a Brookhaven ZetaPlus zetasizer at 25° C. by diluting […] of the dispersion to the required volume with 1 mM PBS or appropriate media.
To test the therapeutic potential of the four formulations, DA rates presenting with induced EAE were subcutaneously injected with one of the four mannosylated liposomal formulations, copaxone (positive control), free (un-encapsulated) MBPI peptide (negative control), and empty mannosylated liposomes (vehicle control; Table 3).
Treatment of each rat was initiated at the first sign of EAE clinical manifestation. […]

## glatiramer acetate [copaxone]
EAE-induced DA rats
  Mortality Rate: 2/6
[1]; 6 daily s.c. injections from first clinical sign
  mean disease score course (FIG. 4): EAE amelioration rate similar to treatment with the MBP1/2/3 SUV formulation; also recorded: did not fully recover from EAE after the initial attack
[1]; one s.c. injection per day, 6 injections, deaths/N
  Mortality: 0/12
[1]; one s.c. injection per day, 6 injections, doses per Table 3
  Median Cumulative Disease Score: 18.5
[1]; one s.c. injection per day, 6 injections, doses per Table 3, score 0-5
  Median Maximal Disease Score (IQR): 2 (1.25)^1

Source: patent publication US20160175249A1, “Liposomes Containing Oligopeptide Fragments of Myelin Basic Protein, a Pharmaceutical Composition and a Method for Treatment of Multiple Sclerosis” (LIPOXEN TECHNOLOGIES LIMITED, priority 2009, published 2016)
